According to US20190064149A1, “CANCER EXAMINATION METHOD AND EXAMINATION KIT” (THE UNIVERSITY OF TOKYO, priority 2013, published 2019):

Molecular target: T1, MT1-MMP (Homo sapiens, UniProt P50281)
T1 construct: expressed in transfected cells; host or cells: HT1080 (human fibrosarcoma) stably expressing c-myc-EphA2, transiently transfected with pSG-MT1-MMP
Assay: EphA2 processing by MT1-MMP in HT1080 cells forcibly expressing MT1-MMP and Myc-labeled EphA2, western blotting
Format: cell-based
Protocol: HT1080 cells expressing c-myc-EphA2 stably were prepared by a ViraPower™ lentiviral expression system using a plenti-c-myc-EphA2 vector in HT1080 and expression vectors (pSG-MT1-6-MMPs) of MT1-6-MMPs were transiently introduced into the resulting cells. EphA2 and MT1-MMP were detected by western blotting using an anti-Myc polyclonal antibody and an anti-MT1-MMP monoclonal antibody. Respective expression vectors of the MT-MMPs were introduced using FuGene6 (Rhoche). Expression of c-myc-EphA2 and wild type MT1-MMP was confirmed by solubilizing each of the cells (10 cm) by RIPA and then performing immunoprecipitation (IP) of EphA2 and stud thereof by an anti C-myc antibody. In order to inhibit the protease activity of MT1-MMP, BB94 or TIMP-2 was added as an MMP inhibitor to a culture solution.

## CNC(=O)[C@H](Cc1ccccc1)NC(=O)[C@H](CC(C)C)[C@H](CSc1cccs1)C(=O)NO [BB94]
HT1080 cells co-expressing Myc-EphA2 and wild type MT1-MMP
  EphA2 species purified by immunoprecipitation with Myc antibody: only a full length type EphA2
HT1080 cells forcibly expressing MT1-MMP, inhibitor added to culture solution
  production of 65 and 60 kDa EphA2 processed fragments: suppressed
